From publication PMC8151276, “An Integrated Approach toward NanoBRET Tracers for Analysis of GPCR Ligand Engagement” (Molecules, 2021)

Legend:
Assay type in all cases: binding
NTSR1 = target: T1, NTSR1 (Homo sapiens, UniProt P30989); assay: NanoBRET screen HiBiT-NTSR1 in HEK293
T1 construct: purchased Promega (in-house HiBiT-GPCR construct library, NanoBRET)
Description: (§1) Each tracer candidate was screened across the entire library of HiBiT-GPCR constructs using NanoBRET as the detection modality. As depicted in Figure 4A, the specificity of interactions was evaluated through decrease in BRET due to competitive displacement of a bound tracer by excess parental compound. Each tracer was analyzed for binding to each HiBiT-GPCR fusion in the absence and in the presence of competing parental compound. Briefly, HEK293 cells were transfected with HiBiT-GPCR constructs diluted into promoterless DNA to reduce expression and maximize translocation to the cell surface. Each tracer candidate was then screened at concentrations of 1 μM and 0.1 μM across cells expressing these fusions. Cells were treated for 1.5 h with tracer either alone or in the presence of 20 μM competing parental compound (i.e., control). BRET was measured upon addition of purified LgBiT and subsequent complementation with HiBiT genetically fused to a GPCR. The specificity of interactions was assessed through a decrease in BRET signal due to competitive displacement of the bound tracer. To further gauge the robustness of these interactions, the fold response over the control (i.e., BRETtracer/BRETcontrol) was calculated. We chose a 1.5-fold response, which translates to ≥7-fold signal over noise as the minimal threshold required to score an interaction as positive. […]. Below we highlight the screening results obtained for our exemplary fluorescent tracers based on Clozapine, Amitriptyline and AZD1283.
(§2) HiBiT-GPCR DNA constructs were diluted in 10 mM Tris pH 8 to a final concentration of 0.01 μg/μL, arrayed in 96-well plates and stored at −20 °C. For transfection, HEK293 cells were suspended in Opti-MEM (without phenol red) supplemented with 2% fetal bovine serum (Seradigm) and 100 units/mL penicillin–streptomycin (Gibco) at a final concentration of 220,000 cells/mL and dispensed into white 96-well plates at 90 μL/well. Subsequent transfections and screens were carried using an Agilent Bravo Automated Liquid Handling Platform. First, the 96-well HiBiT DNA arrays were diluted 25-fold in Opti-MEM (without serum or phenol red) to a final concentration of 0.0004 μg/μL and 20 μL of the diluted DNAs were transferred into new 96-well plates. Next, promoterless carrier DNA (1 μg/μL) was diluted 25-fold (0.04 μg/μL) and then dispensed into the diluted arrays at 20 μL/well. Following brief mixing, Viafect transfection reagent (Promega) diluted 16-fold into Opti-MEM was dispensed into the plates at 40 μL/well. After mixing by pipetting, plates were incubated for 10 min on the pipetting station deck. The DNA-transfection reagent complexes were then added to plates containing cells. To facilitate the screen, 10 μL of DNA-transfection reagent complexes were added in duplicates to the top 4 and bottom 4 rows, resulting in two identical 48-well arrays per plate. Plates with transfected cells were incubated for 18–20 h at 37 °C/5% CO2. A screen of each tracer across the entire library using two different concentrations requires duplicate plates of transfected cells. Depending on the number of tracers being screened, transfections can be scaled up using the same ratios. The next day, for each tracer, four 20× screening solutions in tracer dilution buffer (Promega) were prepared: two duplicates at final concentration of 20 μM and two duplicates at a final concentration of 2 μM. A competing unmodified compound was added to one of each duplicate at a final concentration of 400 μM. The four resulting solutions were diluted 4-fold in Opti-MEM without serum or phenol red to generate 5× solutions (5 µM and 0.5 µM tracer +/− 100 μM competing compound). To screen the library, a BioTek MultiFlo FX liquid dispenser was used to dispense 22.5 µL of tracer solution to the top 4 rows and 22.5 µL tracer + competing compound solution to the 4 bottom rows. Plates were briefly mixed on an orbital shaker and incubated for 1.5 h at room temperature. […]

OPRL1 = target: T2, OPRL1 (Homo sapiens, UniProt P41146); assay: NanoBRET screen HiBiT-OPRL1 in HEK293
T2 construct: purchased Promega (in-house HiBiT-GPCR construct library, NanoBRET)
T2 sequence (P41146 whole entry): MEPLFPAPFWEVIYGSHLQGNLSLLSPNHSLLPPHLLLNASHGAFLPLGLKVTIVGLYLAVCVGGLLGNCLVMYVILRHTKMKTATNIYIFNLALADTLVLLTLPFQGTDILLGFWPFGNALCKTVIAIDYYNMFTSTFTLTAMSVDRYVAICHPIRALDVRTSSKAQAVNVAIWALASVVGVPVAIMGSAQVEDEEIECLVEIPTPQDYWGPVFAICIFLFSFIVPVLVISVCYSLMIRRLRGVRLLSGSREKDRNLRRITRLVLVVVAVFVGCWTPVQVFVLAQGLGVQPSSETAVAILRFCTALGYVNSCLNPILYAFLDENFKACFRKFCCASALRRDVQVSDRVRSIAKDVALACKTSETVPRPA
Description: as §1, §2

LTB4R = target: T3, LTB4R (Homo sapiens, UniProt Q15722); assay: NanoBRET screen HiBiT-LTB4R in HEK293
T3 construct: purchased Promega (in-house HiBiT-GPCR construct library, NanoBRET)
T3 sequence (Q15722 whole entry): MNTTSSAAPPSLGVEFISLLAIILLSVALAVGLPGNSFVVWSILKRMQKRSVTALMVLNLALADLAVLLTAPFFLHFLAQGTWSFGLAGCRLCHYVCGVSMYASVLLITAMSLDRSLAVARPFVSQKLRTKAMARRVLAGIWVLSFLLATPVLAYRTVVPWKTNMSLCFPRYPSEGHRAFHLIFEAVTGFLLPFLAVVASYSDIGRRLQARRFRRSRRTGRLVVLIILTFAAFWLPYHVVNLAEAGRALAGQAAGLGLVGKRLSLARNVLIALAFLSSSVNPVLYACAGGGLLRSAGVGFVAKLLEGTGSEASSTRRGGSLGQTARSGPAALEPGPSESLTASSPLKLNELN
Description: as §1, §2

[1] = tracer at 0.1μM, listed as amitriptyline-b-2-NB590
[2] = tracer at 1μM, listed as amitriptyline-b-2-NB590

T1 sequence (P30989 whole entry): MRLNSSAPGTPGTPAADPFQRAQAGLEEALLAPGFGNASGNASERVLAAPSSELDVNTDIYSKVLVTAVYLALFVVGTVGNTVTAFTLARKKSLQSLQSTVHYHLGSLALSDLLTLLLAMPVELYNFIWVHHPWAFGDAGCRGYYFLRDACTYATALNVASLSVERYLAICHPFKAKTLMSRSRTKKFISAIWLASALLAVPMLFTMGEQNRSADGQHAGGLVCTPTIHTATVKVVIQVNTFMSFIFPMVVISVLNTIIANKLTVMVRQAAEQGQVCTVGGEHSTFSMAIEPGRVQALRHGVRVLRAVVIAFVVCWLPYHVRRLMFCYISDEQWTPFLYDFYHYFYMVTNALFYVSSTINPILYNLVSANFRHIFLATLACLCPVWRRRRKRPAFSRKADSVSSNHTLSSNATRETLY

Row | Structure (SMILES) | NanoBRET Fold Response (NTSR1; NTSR1, tracer 0.1μM) | NanoBRET Fold Response (NTSR1; NTSR1, tracer 1μM) | NanoBRET Fold Response (OPRL1; OPRL1, tracer 0.1μM) | NanoBRET Fold Response (OPRL1; OPRL1, tracer 1μM) | NanoBRET Fold Response (LTB4R; LTB4R, tracer 0.1μM) | NanoBRET Fold Response (LTB4R; LTB4R, tracer 1μM) | NanoBRET Fold Response (NTSR1; NTSR1, 0.1μM tracer) | NanoBRET Fold Response (NTSR1; NTSR1, 1μM tracer) | NanoBRET Fold Response (OPRL1; OPRL1, 0.1μM tracer) | NanoBRET Fold Response (OPRL1; OPRL1, 1μM tracer) | NanoBRET Fold Response (LTB4R; LTB4R, 0.1μM tracer) | NanoBRET Fold Response (LTB4R; LTB4R, 1μM tracer) | further results
1 | O=C(CCc1ccc2n1[B-](F)(F)[N+]1=C(c3ccc[nH]3)C=CC1=C2)NCCOCCOCCNC(=O)OCCOCCN1CCN(C2=Nc3ccccc3Sc3ccccc32)CC1 [Quetiapine-a-2-NB590] | 1.03 | 0.89 | 0.90 | 1.00 | 1.27 | 1.40 | – | – | – | – | – | – | –
2 | Cc1cc2c(s1)Nc1ccccc1N=C2N1CCN(CCCNC(=O)CCOCCOCCOCCOCCNC(=O)CCc2ccc3n2[B-](F)(F)[N+]2=C(c4ccc[nH]4)C=CC2=C3)CC1 [Olanzapine-a-2-NB590] | 1.01 | 1.02 | 1.02 | 0.47 | 1.02 | 1.03 | – | – | – | – | – | – | –
3 | CN(C)CCC=C1c2ccccc2CCc2ccc(C(=O)NCCNC(=O)CCOCCOCCOCCOCCNC(=O)CCc3ccc4n3[B-](F)(F)[N+]3=C(c5ccc[nH]5)C=CC3=C4)cc21 [Amitriptyline-b-2-NB590] | – | – | – | – | – | – | – | – | – | – | – | – | NanoBRET Fold Response (NTSR1; [1]): 0.97; NanoBRET Fold Response (NTSR1; [2]): 1.02; NanoBRET Fold Response (OPRL1; [1]): 1.14; NanoBRET Fold Response (OPRL1; [2]): 1.14; NanoBRET Fold Response (LTB4R; [2]): 1.02
4 | O=C(CCOCCOCCOCCOCCNC(=O)CCc1ccc2n1[B-](F)(F)[N+]1=C(c3ccc[nH]3)C=CC1=C2)NCCCN1CCN(C2=Nc3cc(Cl)ccc3Nc3ccccc32)CC1 [Clozapine-a-2-NB590] | – | – | – | – | – | – | 0.97 | 1.00 | 0.99 | 1.05 | 1.05 | 0.94 | –
5 | CN1CCN(C2=Nc3cc(Cl)ccc3Nc3ccc(CNC(=O)CCOCCOCCOCCOCCNC(=O)CCc4ccc5n4[B-](F)(F)[N+]4=C(c6ccc[nH]6)C=CC4=C5)cc32)CC1 [Clozapine-b-2-NB590] | – | – | – | – | – | – | 1.00 | 1.01 | 1.00 | 1.01 | 1.04 | 1.04 | –
6 | Cc1nc2n(c(=O)c1CCN1CCC(c3noc4cc(F)ccc34)CC1)CCCC2OC(=O)NCCOCCOCCOCCOCCNC(=O)CCc1ccc2n1[B-](F)(F)[N+]1=C(c3ccc[nH]3)C=CC1=C2 (centres unmarked) [Risperidone-2-NB590] | 1.00 | 0.98 | 0.97 | 0.96 | 1.03 | 1.00 | – | – | – | – | – | – | –
